Results published in ChEMBL document CHEMBL2074352, “N-glycosylation controls functional activity of Oatp1, an organic anion transporter” (Am J Physiol Gastrointest Liver Physiol, 2003).

Target: T1, Solute carrier organic anion transporter family member 1A1 (Rattus norvegicus, UniProt P46720)
T1 sequence (P46720 whole entry): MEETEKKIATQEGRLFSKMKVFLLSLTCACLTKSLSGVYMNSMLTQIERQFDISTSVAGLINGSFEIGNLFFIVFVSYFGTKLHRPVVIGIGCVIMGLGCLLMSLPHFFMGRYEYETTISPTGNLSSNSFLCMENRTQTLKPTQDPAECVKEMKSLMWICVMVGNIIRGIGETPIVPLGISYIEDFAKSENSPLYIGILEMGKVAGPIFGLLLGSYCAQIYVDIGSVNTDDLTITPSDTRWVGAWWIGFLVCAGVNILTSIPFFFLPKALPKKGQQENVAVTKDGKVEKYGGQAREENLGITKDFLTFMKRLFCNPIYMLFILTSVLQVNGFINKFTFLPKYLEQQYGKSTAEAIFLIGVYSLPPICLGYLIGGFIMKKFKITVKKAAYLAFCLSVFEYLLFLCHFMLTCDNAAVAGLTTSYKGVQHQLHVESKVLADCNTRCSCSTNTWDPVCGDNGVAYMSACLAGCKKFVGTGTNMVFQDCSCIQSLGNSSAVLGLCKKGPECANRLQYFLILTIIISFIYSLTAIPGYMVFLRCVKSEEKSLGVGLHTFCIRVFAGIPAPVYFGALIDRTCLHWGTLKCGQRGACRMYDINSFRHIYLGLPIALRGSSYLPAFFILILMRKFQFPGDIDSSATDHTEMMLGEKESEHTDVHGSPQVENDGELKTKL
Assay: TP_TRANSPORTER: uptake in Oatp1-expressing Saccharomyces cerevisiae secretory vesicle
Format: functional, subcellular

Activity	Compound
is not a substrate [-]	CCCCC/C=C\C\C=C/C=C/C=C/[C@@H](SC[C@@H](NC(=O)CC[C@H](N)C(=O)O)C(=O)NCC(=O)O)[C@@H](O)CCCC(=O)O [LEUKOTRIEN C4]
is not a substrate [-]	C[C@]12CC[C@@H]3c4ccc(OS(=O)(=O)O)cc4CC[C@H]3[C@@H]1CCC2=O [ESTRONE SULFURIC ACID]
